Experimental data as given in patent publication US20220119354A1, “DIAMINO-SUBSTITUTED PYRIDINES AND PYRIMIDINES AS HERBICIDES” (FMC Corporation, priority 2019, published 2022).

Columns and labels:
Type in all cases: in vivo
[1] = system: barnyardgrass (Echinochloa crus-galli); assay: Test A preemergence, barnyardgrass; conditions: 0 to 100 scale, 0 is no effect, 100 is complete control
Outline: (§1)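 Greenhouse test; plants at one- to two-leaf stage (2–10 cm) sprayed postemergence with compound in non-phytotoxic solvent/surfactant mix, or soil sprayed preemergence after seeding in loam–sand blend. Injury rated visually versus untreated controls after about 10 d, 0 (no effect) to 100 (complete control).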

kochia (Kochia scoparia) [2] = assay: Test A preemergence, kochia; conditions: 0 to 100 scale, 0 is no effect, 100 is complete control
Outline: as §1

[3] = system: ragweed (common ragweed, Ambrosia elatior); assay: Test A preemergence, ragweed; conditions: 0 to 100 scale, 0 is no effect, 100 is complete control
Outline: as §1

[4] = system: ryegrass, Italian (Lolium multiflorum); assay: Test A preemergence, Italian ryegrass; conditions: 0 to 100 scale, 0 is no effect, 100 is complete control
Outline: as §1

[5] = system: foxtail, giant (Setaria faberii); assay: Test A preemergence, giant foxtail; conditions: 0 to 100 scale, 0 is no effect, 100 is complete control
Outline: as §1

[6] = system: pigweed (Amaranthus retroflexus); assay: Test A preemergence, pigweed; conditions: 0 to 100 scale, 0 is no effect, 100 is complete control
Outline: as §1

[7] = system: barnyardgrass (Echinochloa crus-galli); assay: Test A postemergence, barnyardgrass; conditions: 0 to 100 scale, 0 no effect, 100 complete control
Outline: as §1

kochia (Kochia scoparia) [8] = assay: Test A postemergence, kochia; conditions: 0 to 100 scale, 0 no effect, 100 complete control
Outline: as §1

[9] = system: ragweed (common ragweed, Ambrosia elatior); assay: Test A postemergence, ragweed; conditions: 0 to 100 scale, 0 no effect, 100 complete control
Outline: as §1

[10] = system: ryegrass, Italian (Lolium multiflorum); assay: Test A postemergence, Italian ryegrass; conditions: 0 to 100 scale, 0 no effect, 100 complete control
Outline: as §1

[11] = system: foxtail, giant (Setaria faberii); assay: Test A postemergence, giant foxtail; conditions: 0 to 100 scale, 0 no effect, 100 complete control
Outline: as §1

[12] = system: pigweed (Amaranthus retroflexus); assay: Test A postemergence, pigweed; conditions: 0 to 100 scale, 0 no effect, 100 complete control
Outline: as §1

[13] = system: wheat (Triticum aestivum); assay: Test A postemergence, wheat; conditions: 0 to 100 scale, 0 no effect, 100 complete control
Outline: as §1

corn (Zea mays) = assay: Test A postemergence, corn; conditions: 0 to 100 scale, 0 no effect, 100 complete control
Outline: as §1

[14] = system: blackgrass (Alopecurus myosuroides); assay: Test A postemergence, blackgrass; conditions: 0 to 100 scale, 0 no effect, 100 complete control
Outline: as §1

[15] = system: galium (catchweed bedstraw, Galium aparine); assay: Test A postemergence, galium; conditions: 0 to 100 scale, 0 no effect, 100 complete control
Outline: as §1

rice (Oryza sativa) = assay: Test B flooded paddy test, rice; conditions: Flood, 250 g ai/ha, applied to paddy water, 2-leaf stage, visual evaluation after 13 to 15 d
Outline: (§2)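 Plants grown to 2-leaf stage. Compounds applied directly into paddy water flooded 3 cm above soil, with that depth kept throughout. After 13–15 d in greenhouse, visual rating versus controls on a 0–100 scale (0 no effect, 100 complete control).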

[16] = system: sedge, umbrella (small-flower umbrella sedge, Cyperus difformis); assay: Test B flooded paddy test, umbrella sedge; conditions: Flood, 250 g ai/ha, applied to paddy water, 2-leaf stage, visual evaluation after 13 to 15 d
Outline: as §2

[17] = system: ducksalad (Heteranthera limosa); assay: Test B flooded paddy test, ducksalad; conditions: Flood, 250 g ai/ha, applied to paddy water, 2-leaf stage, visual evaluation after 13 to 15 d
Outline: as §2

[18] = system: barnyardgrass (Echinochloa crus-galli); assay: Test B flooded paddy test, barnyardgrass; conditions: Flood, 250 g ai/ha, applied to paddy water, 2-leaf stage, visual evaluation after 13 to 15 d
Outline: as §2

Compound | Barnyardgrass plant response rating ([1]; 125 g ai/ha) | Barnyardgrass plant response rating ([1]; 500 g ai/ha) | Kochia plant response rating (kochia (Kochia scoparia) [2]; 125 g ai/ha) | Kochia plant response rating (kochia (Kochia scoparia) [2]; 500 g ai/ha) | Ragweed plant response rating ([3]; 125 g ai/ha) | Ragweed plant response rating ([3]; 500 g ai/ha) | Ryegrass, Italian plant response rating ([4]; 125 g ai/ha) | Ryegrass, Italian plant response rating ([4]; 500 g ai/ha) | Foxtail, Giant plant response rating ([5]; 125 g ai/ha) | Foxtail, Giant plant response rating ([5]; 500 g ai/ha) | Pigweed plant response rating ([6]; 125 g ai/ha) | Pigweed plant response rating ([6]; 500 g ai/ha) | Plant response rating, Barnyardgrass ([7]; 125 g ai/ha) | Plant response rating, Barnyardgrass ([7]; 500 g ai/ha) | Plant response rating, Kochia (kochia (Kochia scoparia) [8]; 125 g ai/ha) | Plant response rating, Kochia (kochia (Kochia scoparia) [8]; 500 g ai/ha) | Plant response rating, Ragweed ([9]; 125 g ai/ha) | Plant response rating, Ragweed ([9]; 500 g ai/ha) | Plant response rating, Ryegrass, Italian ([10]; 125 g ai/ha) | Plant response rating, Ryegrass, Italian ([10]; 500 g ai/ha) | also measured
CC(Nc1nc(N)c(C(F)(F)F)c(C(F)(F)F)n1)c1coc2ccccc12 (stereo not drawn) [Compound 87] | 0 | 0 | 0 | 0 | 0 | 0 | 0 | 0 | 0 | 0 | 0 | 10 | 0 | 0 | 0 | 30 | 0 | 20 | 0 | 0 | Plant response rating, Foxtail, Giant ([11]; 125 g ai/ha): 0; Plant response rating, Foxtail, Giant ([11]; 500 g ai/ha): 0; Plant response rating, Pigweed ([12]; 125 g ai/ha): 0; Plant response rating, Pigweed ([12]; 500 g ai/ha): 60; Plant response rating, Wheat ([13]; 125 g ai/ha): 0; Plant response rating, Wheat ([13]; 500 g ai/ha): 0; Plant response rating, Corn (corn (Zea mays); 125 g ai/ha): 0; Plant response rating, Corn (corn (Zea mays); 500 g ai/ha): 0; Plant response rating, Blackgrass ([14]; 125 g ai/ha): 0; Plant response rating, Blackgrass ([14]; 500 g ai/ha): 0; Plant response rating, Galium ([15]; 125 g ai/ha): 0; Plant response rating, Galium ([15]; 500 g ai/ha): 0; Plant response rating, Rice (0 to 100 scale, 0 is no effect, 100 is complete control) (rice (Oryza sativa)): 0; Plant response rating, Sedge, Umbrella (0 to 100 scale, 0 is no effect, 100 is complete control) [16]: 0; Plant response rating, Ducksalad (0 to 100 scale, 0 is no effect, 100 is complete control) [17]: 0; Plant response rating, Barnyardgrass (0 to 100 scale, 0 is no effect, 100 is complete control) [18]: 0
Nc1nc(NC(c2cc3ccccc3o2)C2CC2)ncc1C(F)(F)F (stereo not drawn) [Compound 88] | 70 | 90 | 70 | 100 | 80 | 100 | 50 | 100 | 90 | 100 | 100 | 100 | 10 | 90 | 90 | 90 | 30 | 90 | 50 | 60 | Plant response rating, Foxtail, Giant ([11]; 125 g ai/ha): 30; Plant response rating, Foxtail, Giant ([11]; 500 g ai/ha): 90; Plant response rating, Pigweed ([12]; 125 g ai/ha): 100; Plant response rating, Pigweed ([12]; 500 g ai/ha): 100; Plant response rating, Wheat ([13]; 125 g ai/ha): 0; Plant response rating, Wheat ([13]; 500 g ai/ha): 0; Plant response rating, Corn (corn (Zea mays); 125 g ai/ha): 20; Plant response rating, Corn (corn (Zea mays); 500 g ai/ha): 30; Plant response rating, Blackgrass ([14]; 125 g ai/ha): 50; Plant response rating, Blackgrass ([14]; 500 g ai/ha): 50; Plant response rating, Galium ([15]; 125 g ai/ha): 90; Plant response rating, Galium ([15]; 500 g ai/ha): 90; Plant response rating, Rice (0 to 100 scale, 0 is no effect, 100 is complete control) (rice (Oryza sativa)): 0; Plant response rating, Sedge, Umbrella (0 to 100 scale, 0 is no effect, 100 is complete control) [16]: 95; Plant response rating, Ducksalad (0 to 100 scale, 0 is no effect, 100 is complete control) [17]: 65; Plant response rating, Barnyardgrass (0 to 100 scale, 0 is no effect, 100 is complete control) [18]: 80
Nc1nc(NC(c2cc3ccccc3o2)C2CC2)ncc1C(F)(F)F (stereo not drawn) [Compound 89] | 0 | 0 | 0 | 0 | 0 | 20 | 0 | 0 | 0 | 0 | 0 | 0 | 0 | 0 | 0 | 0 | 0 | 0 | 0 | 0 | Plant response rating, Foxtail, Giant ([11]; 125 g ai/ha): 0; Plant response rating, Foxtail, Giant ([11]; 500 g ai/ha): 0; Plant response rating, Pigweed ([12]; 125 g ai/ha): 0; Plant response rating, Pigweed ([12]; 500 g ai/ha): 0; Plant response rating, Wheat ([13]; 125 g ai/ha): 0; Plant response rating, Wheat ([13]; 500 g ai/ha): 0; Plant response rating, Corn (corn (Zea mays); 125 g ai/ha): 0; Plant response rating, Corn (corn (Zea mays); 500 g ai/ha): 0; Plant response rating, Blackgrass ([14]; 125 g ai/ha): 0; Plant response rating, Blackgrass ([14]; 500 g ai/ha): 0; Plant response rating, Galium ([15]; 125 g ai/ha): 0; Plant response rating, Galium ([15]; 500 g ai/ha): 0; Plant response rating, Rice (0 to 100 scale, 0 is no effect, 100 is complete control) (rice (Oryza sativa)): 0; Plant response rating, Sedge, Umbrella (0 to 100 scale, 0 is no effect, 100 is complete control) [16]: 95; Plant response rating, Ducksalad (0 to 100 scale, 0 is no effect, 100 is complete control) [17]: 30; Plant response rating, Barnyardgrass (0 to 100 scale, 0 is no effect, 100 is complete control) [18]: 30
C[C@@H](Nc1ncc(C(F)(F)F)c(N)n1)c1cc2ccccc2n1C [Compound 98] | 20 | 50 | 0 | 0 | 20 | 80 | 20 | 40 | 0 | 40 | 0 | 100 | 0 | 0 | 20 | 40 | 30 | 60 | 0 | 0 | Plant response rating, Foxtail, Giant ([11]; 125 g ai/ha): 0; Plant response rating, Foxtail, Giant ([11]; 500 g ai/ha): 0; Plant response rating, Pigweed ([12]; 125 g ai/ha): 60; Plant response rating, Pigweed ([12]; 500 g ai/ha): 90; Plant response rating, Wheat ([13]; 125 g ai/ha): 0; Plant response rating, Wheat ([13]; 500 g ai/ha): 0; Plant response rating, Corn (corn (Zea mays); 125 g ai/ha): 0; Plant response rating, Corn (corn (Zea mays); 500 g ai/ha): 0; Plant response rating, Blackgrass ([14]; 125 g ai/ha): 0; Plant response rating, Blackgrass ([14]; 500 g ai/ha): 0; Plant response rating, Galium ([15]; 125 g ai/ha): 50; Plant response rating, Galium ([15]; 500 g ai/ha): 70; Plant response rating, Rice (0 to 100 scale, 0 is no effect, 100 is complete control) (rice (Oryza sativa)): 0; Plant response rating, Sedge, Umbrella (0 to 100 scale, 0 is no effect, 100 is complete control) [16]: 0; Plant response rating, Ducksalad (0 to 100 scale, 0 is no effect, 100 is complete control) [17]: 0; Plant response rating, Barnyardgrass (0 to 100 scale, 0 is no effect, 100 is complete control) [18]: 0
